Assay results taken from US20240032530A1, “BLOOD SAMPLER CONTAINING ANTI-PLATELET AGENT AND WATER-SOLUBLE MATRIX MATERIAL” (Radiometer Medical ApS, priority 2020, published 2024).

Test system: platelets (PLT) in whole blood
Test: Whole blood stability: PLT concentration on Sysmex XN-9000 hematology analyzer
Type: cell-based, healthy volunteers
Details: FIG. 8; formulated with PVP (Mw 10′000)/Tris matrix, 1 μM in whole blood, with Hep brick or LiHep tube, analyzed within 6 hours, three donors
Protocol: For storage stability and whole blood stabilization testing, the tubes were sprayed with 10 μL each of the mixture (D) using an ExactaCoat from Sono-Tek for ultrasonic spraying. And tubes were evacuated after spraying in order to allow filling of 3 mL whole blood during blood drawing via venipuncture.
Tubes with sprayed anti-platelet agents Iloprost, Beraprost sodium and Treprostinil each formulated with a PVP (Mw 10′000)/Tris matrix were prepared by ultrasonic spraying as described above. Spraying was done into either 1) tubes with no additive and after spraying, a heparinized filter paper brick (Hep brick) was added to the tube; or 2) spraying was conducted into commercial Lithium Heparin tubes (LiHep). The formulations were prepared to achieve a final anti-platelet agent concentration of 1 μM in whole blood. After preparation, tubes were evacuated and lids closed in order to allow drawing of correct whole blood volume during venipuncture. Blood from three different healthy volunteers were drawn into prepared blood collection tubes and reference standard EDTA and Lithium Heparin (LiHep) tubes. Whole blood samples were analyzed with a Sysmex XN-9000 hematology analyzer within 6 hours after blood sample drawing.
The Y-axis is the normalized PLT concentration relative to the EDTA sample.

SMILES	anti-platelet activity (normalized PLT concentration relative to the EDTA sample)
CCCCC[C@H](O)CC[C@@H]1[C@H]2Cc3cccc(OCC(=O)O)c3C[C@H]2C[C@H]1O [Treprostinil]	as high as that of EDTA
CC#CCC(C)[C@H](O)/C=C/[C@@H]1[C@H]2c3cccc(CCCC(=O)O)c3O[C@H]2C[C@H]1O (mixture of isomers) [Beraprost, Beraprost sodium]	as high as that of EDTA
CC#CCC(C)[C@H](O)/C=C/[C@@H]1[C@H]2C/C(=C/CCCC(=O)O)C[C@H]2C[C@H]1O (stereo partly drawn) [Iloprost, iloprost]	as high as that of EDTA
